Test results from US8486994B2, “Prodrugs of substituted 1,3-dioxanes and their uses” (Evolva SA, priority 2007, dated 2013).

Legend:
[1] = tested on: TP Receptor; test: TP Receptor Platelet Aggregation - Rabbit (U-46619-induced, platelet rich plasma); format: cell-based, New Zealand Rabbit; conditions: at 0.1 mM; 1.5 μM U-46619
Protocol: Using these experimental conditions New Zealand Rabbit (2.75±0.25 kg) platelet rich plasma, Vehicle: 0.3% DMSO, Assay: Inhibition of 1.5 μM U-46619-induced platelet aggregation, Incubation Time, Temp: 5 min at 37° C., Incubation Buffer: Trisodium Citrate (0.13 M)-treated platelet rich plasma, Bath Volume: 0.5 mL, Time of Assessment: 5 min, Quantification Method: Optical Density Change. the assay performed according to Patscheke, H., and Stregmeier, K. (1984) Investigations on a selective non-prostanoic thromboxane antagonist, BM13,177, in human platelets. Thrombosis Research 33:277-288
The data were transformed to semi-log and then analysed using non-linear regression to a four-parameter dose-response curve Y=Bottom+(Top−Bottom)/(1+10^((Log EC50−X)*HillSlope)) using the log(agonist) vs. response—Variable slope function of GraphPad Prism software (http://graphpad.com/help/prism5/prism5help.html?usingnonlinear_regression_step_by_s.ht m).

[2] = target: T1, Human Recombinant (E. coli) PPARgamma (Homo sapiens, UniProt P37231); test: PPAR gamma binding assay ([3H]-rosiglitazone)
T1 construct: host or cells: E. coli
T1 sequence (P37231 1-505): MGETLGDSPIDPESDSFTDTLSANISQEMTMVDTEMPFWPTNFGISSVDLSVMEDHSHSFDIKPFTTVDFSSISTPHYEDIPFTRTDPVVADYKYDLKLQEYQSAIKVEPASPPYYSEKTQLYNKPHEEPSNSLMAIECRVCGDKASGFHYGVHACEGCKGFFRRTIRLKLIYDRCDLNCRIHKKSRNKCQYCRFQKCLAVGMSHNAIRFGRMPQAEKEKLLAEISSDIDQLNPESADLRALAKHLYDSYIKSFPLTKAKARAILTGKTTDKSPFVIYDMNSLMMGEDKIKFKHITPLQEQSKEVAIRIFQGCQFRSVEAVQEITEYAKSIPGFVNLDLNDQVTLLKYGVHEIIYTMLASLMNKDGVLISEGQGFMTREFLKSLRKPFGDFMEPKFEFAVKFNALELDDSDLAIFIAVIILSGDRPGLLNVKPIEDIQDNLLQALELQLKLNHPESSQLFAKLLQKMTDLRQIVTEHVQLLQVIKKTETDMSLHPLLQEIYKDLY
Protocol: Human Recombinant (E. coli) PPARgamma) (h) Binding Assay:
The results are expressed as a percent of control specific binding ((measured specific binding/control specific binding)×100) obtained in the presence of the test compounds. The IC50 values (concentration causing a half-maximal inhibition of control specific binding) and Hill coefficients (nil) were determined by non-linear regression analysis of the competition curves generated with mean replicate values using Hill equation curve fitting (Y=D+[(A−D)/(1+(C/C50)nH)], where Y=specific binding, D=minimum specific binding, A=maximum specific binding, C=compound concentration, C50=IC50, and nH=slope factor). This analysis is performed using a software developed at Cerep (Hill software) and validated by comparison with data generated by the commercial software SigmaPlot® 4.0 for Windows® (© 1997 by SPSS Inc.). The inhibition constants (Ki) are calculated using the Cheng Prusoff equation (Ki=IC50/(1+(L/KD)), where L=concentration of radioligand in the assay, and KD=affinity of the radioligand for the receptor).

| Compound | Platelet aggregation Rabbit Inhibition (%) [1] | conversion of the prodrug to the corresponding acid [2] | binding to PPARgamma ([2]; [3H]-rosiglitazone 10 nM, 120 min at 4° C., compared with the acid of Example 1) |
| --- | --- | --- | --- |
| COc1ccc(C(=O)NCc2cccnc2)cc1C(=O)NCc1cccnc1 [Picotamide] | 21% |  |  |
| COC(=O)CC/C=C\C[C@@H]1COC(c2ccccc2Cl)O[C@@H]1c1ccccc1O (stereo partly drawn) [Prodrug 2] |  | the prodrug is converted to the corresponding acid | binds to PPARgamma at least as well as the corresponding acid |
